Assay [1] deals with T1, human recombinant H-PGDS (Homo sapiens, UniProt O60760). The experiment in a line: Fluorescence intensity h-PGDS TBA enzyme assay. It counts as biochemical. The settings on record: Examples up to 622 (and 3a, 3b).
In assay [2] the test system is A. suum antigen-induced asthmatic response in conscious sheep. The experiment in a line: In vivo assay, anti-asthmatic effects in a sheep model of asthma. The settings on record: i.v. infusion, single dose of 1, 0.3 or 0.1 mg/kg, specific lung resistance (RL). The source says: In vivo Assay—Anti-Asthmatic Effects in a Sheep Model of Asthma A validated model of A. suum antigen-induced asthmatic response in conscious sheep was used to evaluate the pharmacokinetic properties, inhibition of antigen-induced early and late airway bronchoconstriction in the lung by compound (Abraham, W. M., et al., Am Rev Respir Dis 1991; 143:787-796). […] An aerosol of A. suum extract, generated using a disposable medical nebulizer (Raindrop®, Puritan Bennett) was delivered in at a tidal volume of 500 mL and a rate of 20 breaths/min. A compound of Example 2 was delivered by i.v. infusion over the interval t=0-20 min prior to antigen challenge. A single dose of 1, 0.3 or 0.1 mg//kg was evaluated. Baseline and post-drug measurements of specific lung resistance (RL) were obtained immediately prior to challenge (t=30 min) with A. suum antigen, immediately after challenge and then hourly from 1 to 6 h post challenge and on the half-hour from 6.5, 5-8 h post challenge. Measurements of RL were obtained 24 h post challenge, followed by the 24 h post-challenge dose-response curve for carbachol. […] To assess airway responsiveness, the cumulative carbachol dose in breath units (BU) that increased RL 400% over the post-buffer value (i.e., PC400) were calculated from the dose-response curve. […]

For assay [3], the target named is T1, human recombinant H-PGDS. The experiment in a line: Slightly modified h-PGDS TBA enzyme assay (Examples 623 onwards). It counts as biochemical. How it is done: Prostaglandin D Synthase (PGDS) converts the substrate prostaglandin H2 (PGH2) to prostaglandin D2.
Examples 623 onwards were tested in a slightly modified assay: The enzyme assay (30 μls during biological process) contained 100 mM Trizma pH 8.0, 100 μM MgCl2, 0.1 mg/ml IgG Rabbit serum, 5.0 μM PGH2 (Cayman; ethanol solution, #17020), 2.5 mM L-Glutathione (Sigma; reduced form #G4251), 1:40,000 human recombinant H-PGDS (from 1 mg/ml), 0.5% DMSO and inhibitor (varying concentration). 3 μls of diluted inhibitor (dissolved in DMSO) was plated into a 384-well assay plate followed by a 24 μl addition of an enzyme solution containing h-PGDS, Trizma, MgCl2, IgG and L-Glutathione. After pre-incubation of inhibitor and enzyme solution for 10 minutes at room temperature, the reaction was initiated with a 3 μl addition of substrate solution in 10 mM HCl. The reaction was terminated after 40 second by the addition of 3 μl stop buffer containing FeCl2 and citric acid. After addition of 45 μl of TBA plates were heated for one hour in a 70° C. oven. Plates were cooled at room temperature overnight and read on a plate reader the next day with excitation @ 530 nm and emission @ 560 nm. IC50's of inhibitors were calculated with a 4-parameter fit using 11 inhibitor concentrations in duplicate with 1/2 log serial dilutions. […] The highest inhibitor concentration tested was typically 10 μM.

Where a name gives a salt, the structure may show the parent alone.

Usually IC50 stands for the point on the concentration scale where inhibition reaches its midpoint.

T1 sequence (O60760 whole entry, the tested form may be a part): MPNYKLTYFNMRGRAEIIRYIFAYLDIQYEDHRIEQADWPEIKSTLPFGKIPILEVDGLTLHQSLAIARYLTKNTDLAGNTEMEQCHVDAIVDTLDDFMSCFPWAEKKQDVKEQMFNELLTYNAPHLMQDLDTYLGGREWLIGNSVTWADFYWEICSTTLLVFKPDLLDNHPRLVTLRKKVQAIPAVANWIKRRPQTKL

Turning to `O=C(NC1CCN(CC(F)(F)F)CC1)c1ccc(-c2cccc(F)c2)nc1` [Example 2, 6-(3-Fluorophenyl)-N-(1-(2,2,2-trifluoroethyl)piperidin-4-yl)nicotinamide], the 50% inhibitory concentration (IC50) at human recombinant H-PGDS [1] amounted to 0.852 nM. In assay [2], the “early airway response (0-2 h after allergen challenge)” value is recorded as “not reduced” and the “late airway response (4-8 h after antigen challenge) inhibited” value is “approximately 60%”.

In the case of `O=C(N[C@H]1[C@@H]2CNC[C@@H]21)c1ccc(-c2cccc(F)c2)nc1` [Example 653, N-[(1R,5S,6s)-3-azabicyclo[3.1.0]hex-6-yl]-6-(3-fluorophenyl)nicotinamide di-hydrochloride], the half-maximal inhibitory concentration (IC50) on human recombinant H-PGDS [3] amounted to 177 nM.

As for `CC(=O)N1C[C@@H]2[C@H](C1)[C@H]2NC(=O)c1ccc(-c2cccc(F)c2)nc1` [Example 654, N-[(1R,5S,6s)-3-acetyl-3-azabicyclo[3.1.0]hex-6-yl]-6-(3-fluorophenyl)nicotinamide], the IC50 at human recombinant H-PGDS [3] is 33.8 nM.

As to `CCCN1C[C@@H]2[C@H](C1)[C@H]2NC(=O)c1ccc(-c2cccc(F)c2)nc1` [Example 655], on human recombinant H-PGDS [3], the IC50 stood at 66.8 nM.

(Values after patent publication US7902373B2 (Pfizer Inc, priority 2006, dated 2011).)
